Test results as given in the supplement of paper PMC11451515.

Assays:
Details in all cases: 48 h
SEM cells [1] = assay: AUC of viability dose-response curve (% viability x log10 dose units); higher = less sensitive
Method in brief: (§1)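 Viability of medium-adapted leukemia cells was measured by CellTiter-Glo One luminescence after 48 h at 37°C with library compounds in DMSO. Doses were 11 threefold steps from 47 μM to 0.79 nM, in 1536-well plates at 500 or 1000 cells/well. Signals were normalised per plate to DMSO and cell-free wells and fitted with a four-parameter log-logistic model on log10 dose. Area under the curve was integrated by trapezoidal rule, with curves exceeding full viability scaled and failed quality-control curves removed.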

P12-Ichikawa [2] = assay: as above
Method in brief: as §1

NOMO1 [3] = assay: as above
Method in brief: as §1

SEM cells [4] = assay: cell viability relative to DMSO control; higher = less cytotoxic
Method in brief: (§2)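 Viability is expressed as a percentage of DMSO wells within each plate, and cell-free wells serve as background. Seeding densities in the 1536-well plates (5 μl) were 500 cells/well for NOMO1 or SEM leukemia cells and 1000 cells/well for P12-Ichikawa. Each line was adapted for at least four passages in each medium. Library compounds in DMSO were pin-dosed at 47 μM to 0.79 nM (11 points, threefold), and CellTiter-Glo One luminescence was read after 48 h at 37°C.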

P12-Ichikawa [5] = assay: as above
Method in brief: as §2

NOMO1 [6] = assay: as above
Method in brief: as §2

FC(F)c1nc2ccccc2n1-c1nc(N2CCOCC2)nc(N2CCOCC2)n1
AUC of viability dose-response curve
Details | NOMO1 [3] | P12-Ichikawa [2] | SEM cells [1]
HPLM + 10% dialyzed FBS | 260 | 413 | 325
RPMI 5 mM glucose + 10% FBS | 329 | 367 | 351
RPMI 5 mM glucose + 10% dialyzed FBS | 333 | 394 | 326

cell viability [%]
Details | NOMO1 [6] | P12-Ichikawa [5] | SEM cells [4]
HPLM + 10% dialyzed FBS, 0.000781 µM | 104 | 98.2 | 85.1
HPLM + 10% dialyzed FBS, 0.00234 µM | 93.8 | 108 | 79
HPLM + 10% dialyzed FBS, 0.00702 µM | 92 | 107 | 83.6
HPLM + 10% dialyzed FBS, 0.0211 µM | 60.1 | 104 | 85.9
HPLM + 10% dialyzed FBS, 0.0632 µM | 65.3 | 101 | 73.8
HPLM + 10% dialyzed FBS, 0.19 µM | 42.6 | 91.4 | 62.8
HPLM + 10% dialyzed FBS, 0.569 µM | 43.9 | 85.4 | 61.3
HPLM + 10% dialyzed FBS, 1.71 µM | 36.3 | 78.5 | 66.6
HPLM + 10% dialyzed FBS, 5.12 µM | 41.5 | 83.8 | 49.7
HPLM + 10% dialyzed FBS, 15.4 µM | 27.7 | 81.9 | 60
HPLM + 10% dialyzed FBS, 46.1 µM | 30.6 | 59.1 | 38.7
RPMI 5 mM glucose + 10% FBS, 0.000781 µM | 85.4 | 98 | 87.6
RPMI 5 mM glucose + 10% FBS, 0.00234 µM | 92.2 | 104 | 80.7
RPMI 5 mM glucose + 10% FBS, 0.00702 µM | 87.9 | 96 | 93.5
RPMI 5 mM glucose + 10% FBS, 0.0211 µM | 94.5 | 85.4 | 84.4
RPMI 5 mM glucose + 10% FBS, 0.0632 µM | 78 | 92.8 | 75.3
RPMI 5 mM glucose + 10% FBS, 0.19 µM | 67.8 | 71 | 70.5
RPMI 5 mM glucose + 10% FBS, 0.569 µM | 52.6 | 64.7 | 75.6
RPMI 5 mM glucose + 10% FBS, 1.71 µM | 62.8 | 58.9 | 63.1
RPMI 5 mM glucose + 10% FBS, 5.12 µM | 45.7 | 61.1 | 66
RPMI 5 mM glucose + 10% FBS, 15.4 µM | 60.2 | 58.7 | 62.4
RPMI 5 mM glucose + 10% FBS, 46.1 µM | 31.2 | 58 | 45.8
RPMI 5 mM glucose + 10% dialyzed FBS, 0.000781 µM | 86.5 | 106 | 84.2
RPMI 5 mM glucose + 10% dialyzed FBS, 0.00234 µM | 102 | 94.5 | 78.9
RPMI 5 mM glucose + 10% dialyzed FBS, 0.00702 µM | 97.1 | 103 | 71.9
RPMI 5 mM glucose + 10% dialyzed FBS, 0.0211 µM | 97.5 | 102 | 87.5
RPMI 5 mM glucose + 10% dialyzed FBS, 0.0632 µM | 76.5 | 95.3 | 72.2
RPMI 5 mM glucose + 10% dialyzed FBS, 0.19 µM | 71 | 92.6 | 68.7
RPMI 5 mM glucose + 10% dialyzed FBS, 0.569 µM | 54.7 | 75.7 | 60.6
RPMI 5 mM glucose + 10% dialyzed FBS, 1.71 µM | 52.9 | 54.4 | 63.1
RPMI 5 mM glucose + 10% dialyzed FBS, 5.12 µM | 50.2 | 63.5 | 66
RPMI 5 mM glucose + 10% dialyzed FBS, 15.4 µM | 43.9 | 64.8 | 54.3
RPMI 5 mM glucose + 10% dialyzed FBS, 46.1 µM | 34.4 | 55.8 | 37.1

CC(C)=CC[C@@H](O)C/1=C/C(=O)C2=C(O)C=CC(=C2C1=O)O
AUC of viability dose-response curve
Details | NOMO1 [3] | P12-Ichikawa [2] | SEM cells [1]
HPLM + 10% dialyzed FBS | 379 | 413 | 449
RPMI 5 mM glucose + 10% FBS | 354 | 415 | 407
RPMI 5 mM glucose + 10% dialyzed FBS | 368 | 434 | 431

cell viability [%]
Details | NOMO1 [6] | P12-Ichikawa [5] | SEM cells [4]
HPLM + 10% dialyzed FBS, 0.000781 µM | 91.5 | 90.8 | 76.2
HPLM + 10% dialyzed FBS, 0.00234 µM | 108 | 107 | 90.2
HPLM + 10% dialyzed FBS, 0.00702 µM | 95.5 | 111 | 89.5
HPLM + 10% dialyzed FBS, 0.0211 µM | 100 | 108 | 96
HPLM + 10% dialyzed FBS, 0.0632 µM | 105 | 109 | 98.3
HPLM + 10% dialyzed FBS, 0.19 µM | 113 | 109 | 97.7
HPLM + 10% dialyzed FBS, 0.569 µM | 123 | 118 | 93.5
HPLM + 10% dialyzed FBS, 1.71 µM | 85.1 | 111 | 91.4
HPLM + 10% dialyzed FBS, 5.12 µM | 33.5 | 104 | 98.7
HPLM + 10% dialyzed FBS, 15.4 µM | 25.8 | 17.1 | 119
HPLM + 10% dialyzed FBS, 46.1 µM | 17 | 8.56 | 77.4
RPMI 5 mM glucose + 10% FBS, 0.000781 µM | 93.7 | 93.6 | 82.4
RPMI 5 mM glucose + 10% FBS, 0.00234 µM | 105 | 113 | 76.6
RPMI 5 mM glucose + 10% FBS, 0.00702 µM | 102 | 114 | 79.2
RPMI 5 mM glucose + 10% FBS, 0.0211 µM | 102 | 120 | 81.9
RPMI 5 mM glucose + 10% FBS, 0.0632 µM | 95.7 | 120 | 93.2
RPMI 5 mM glucose + 10% FBS, 0.19 µM | 96 | 114 | 98.3
RPMI 5 mM glucose + 10% FBS, 0.569 µM | 108 | 120 | 92.3
RPMI 5 mM glucose + 10% FBS, 1.71 µM | 52.6 | 106 | 105
RPMI 5 mM glucose + 10% FBS, 5.12 µM | 17.3 | 108 | 86.2
RPMI 5 mM glucose + 10% FBS, 15.4 µM | 17.9 | 22.9 | 77.8
RPMI 5 mM glucose + 10% FBS, 46.1 µM | 12.2 | 8.56 | 47.1
RPMI 5 mM glucose + 10% dialyzed FBS, 0.000781 µM | 88.2 | 92.7 | 72.2
RPMI 5 mM glucose + 10% dialyzed FBS, 0.00234 µM | 92.6 | 106 | 87.8
RPMI 5 mM glucose + 10% dialyzed FBS, 0.00702 µM | 93 | 108 | 85.8
RPMI 5 mM glucose + 10% dialyzed FBS, 0.0211 µM | 113 | 108 | 95.5
RPMI 5 mM glucose + 10% dialyzed FBS, 0.0632 µM | 98.1 | 113 | 99
RPMI 5 mM glucose + 10% dialyzed FBS, 0.19 µM | 109 | 107 | 104
RPMI 5 mM glucose + 10% dialyzed FBS, 0.569 µM | 107 | 118 | 111
RPMI 5 mM glucose + 10% dialyzed FBS, 1.71 µM | 70.2 | 117 | 117
RPMI 5 mM glucose + 10% dialyzed FBS, 5.12 µM | 24.5 | 113 | 87.4
RPMI 5 mM glucose + 10% dialyzed FBS, 15.4 µM | 15.3 | 55.2 | 80.4
RPMI 5 mM glucose + 10% dialyzed FBS, 46.1 µM | 21.2 | 21 | 21.6
